Laboratory results as given in US6444646B1, “Use of angiotensin II type 2 receptor agonists in tissue repair” (University of Southern California, priority 1995, dated 2002).
Where two headings read alike, the source gives them in different places. Non-standard residues stand in square brackets, D forms with d. No end group written: not given here. Phe(4-NH2) = Nc1ccc(C[C@H](N)C(=O)O)cc1

Experiments:
[1] = test system: intimal hyperplasia after balloon injury; settings: cited from earlier work
wound tissue = settings: applied to wound tissue; cited from earlier work
[2] = test system: full thickness dermal wounds; experiment: rat model for dermal repair (full thickness dermal wounds); assay type: in vivo; settings: 100 μg/d for 5 days
Description: Female Sprague Dawley rats, 175-200 g, were obtained from Simonsen Laboratories, Gilroy, Calif. On the day of surgery, the rats received intramuscular ketamine/rompum anesthesia prior to preparation for surgery. The rats were shaved and scrubbed with betadine. Two 1.5×1.5 cm full thickness dermal wounds were created on the dorsal surface of the rat. Following excision of the skin, the size of the wound was outlined on a glass slide and the medicament was administered in 100 μl 10% low viscosity carboxymethyl cellulose (Sigma). The test materials were administered in a randomized fashion; all materials were tested at 100 μg/wound. Controls were treated with vehicle only. After administration of the materials, the rats were bandaged and allowed to recover from anesthesia. On days 1-4 after surgery, the rats were treated with an additional 100 μg of peptide formulation. At days 2, 4 ,7 and 9, the area of the skin wounds were measured under methoxyflurane anesthesia (commercially available as Metofane from Pittman-Moore, Mundelein, Ill.). The area of the wound was determined by (1) tracing the wound shape onto graph paper (1×1 mm squares); (2) cutting out the shape; (3) weighing the paper and comparing the weight with a 1.5×1.5 cm paper cutout; and (4) counting the number of squares. In addition, on days 2, 4 and 7, the area of granulation tissue was similarly determined.
As illustrated in FIGS. 1-2, wound closure and the formation of granulation tissue was substantially accelerated relative to the control animals when the test animals were treated with an AT2 agonist. FIG. 1 illustrates the percent of control response in wound closure relative to a vehicle-treated control; FIG. 2 illustrates the percent increase in formation of granulation tissue relative to a vehicle control.

AT2 receptor [3] = settings: higher affinity for AT2 than AT1; cited from earlier work
AT2 receptor [4] = settings: experimental models tested (rabbit vas deferens; NG-108-15); cited from earlier work
[5] = rat dermal wounds, relative to vehicle-treated control

CGP 42112
neointimal formation ([1]; similar model, infused perivascularly for 14 days): prevented neointimal formation

Cc1cc(Cn2cnc3c2C[C@@H](C(=O)O)N(C(=O)C(c2ccccc2)c2ccccc2)C3)ccc1N(C)C [PD 123319]
reduction of intimal hyperplasia ([1]; rats, after balloon injury): 73%

CCCCc1nc(Cl)c(CO)n1Cc1ccc(-c2ccccc2-c2nn[nH]n2)cc1 [losartan]
neointimal formation ([1]; other studies, higher doses): effective
decrease of intimal area ([1]; rats, after balloon injury): 95%
neointimal formation ([1]; similar model, low doses): ineffective

Asp-Arg-Val-Tyr-Ile-His-Pro-Phe (DRVYIHPF) [angiotensin II, octapeptide present in humans and other species; known pressor agent]
rate of wound healing (wound tissue): significantly increases

Asp-Arg-Val-Tyr-Ile-Xaa-Pro-Phe [SEQ ID NO:2] wherein Xaa is p-NH2-Phe (DRVYI[Phe(4-NH2)]PF) [p-aminophenylalanine6-AII]
granulation tissue formation [2, 5]: accelerated
wound closure [2, 5]: accelerated
results in dermal repair compared with AII ([2]; rat): comparable to AII
affinity for AT2 relative to AT1 (AT2 receptor [3]): 1000 ×
binding characteristics (AT2 receptor [4]): comparable to the AT2 antagonists
